Experiments:
Test in all cases: relative viability (nuclei count vs DMSO), 5 days (fraction); higher = more cells survive
ABC-1 = system: ABC-1
Procedure, shortened: (§1)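 Lung cancer cell lines in 1536-well plates were dosed by pin tool the day after seeding, either with one drug alone or with a fixed anchor-drug dose plus five library-drug doses (not always all listed) in √10 steps. After 5 days, cells were fixed and their nuclei stained in one step (final 0.05% Triton X-100, 1% formaldehyde, 1 ug/ml Hoechst), then counted on 4× images. Relative viability is the nuclei count in treated wells divided by that in vehicle wells. Values are medians of duplicate plates.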

COR-L23 = system: COR-L23
Procedure, shortened: as §1

EPLC-272H = system: EPLC-272H
Procedure, shortened: as §1

HARA = system: HARA
Procedure, shortened: as §1

HCC-15 = system: HCC-15
Procedure, shortened: as §1

HCC-78 = system: HCC-78
Procedure, shortened: as §1

LC-2-ad = system: LC-2-ad
Procedure, shortened: as §1

LU99A = system: LU99A
Procedure, shortened: as §1

NCI-H1355 = system: NCI-H1355
Procedure, shortened: as §1

NCI-H1651 = system: NCI-H1651
Procedure, shortened: as §1

NCI-H1915 = system: NCI-H1915
Procedure, shortened: as §1

NCI-H1993 = system: NCI-H1993
Procedure, shortened: as §1

Which relative viability (ABC-1; first compound 0.005 µM) does the source give for CC1(C)CCC(c2ccc(Cl)cc2)=C(CN2CCN(c3ccc(C(=O)NS(=O)(=O)c4ccc(N[C@H](CCN5CCOCC5)CSc5ccccc5)c(S(=O)(=O)C(F)(F)F)c4)cc3)CC2)C1 [Navitoclax] + COc1cccc2cc(-c3nc([C@H]4CC[C@H](C(=O)O)CC4)n4ncnc(N)c34)[nH]c12 [OSI-027] (partner 0.5 µM) here?
The relative viability was 0.506.

What about the relative viability (ABC-1; first compound 0.01581 µM) of the same compound?
Its relative viability is 0.637.

What about the relative viability (ABC-1; first compound 0.05 µM) of the same compound?
Its relative viability is 0.397.

And the relative viability (ABC-1; first compound 0.1581 µM)?
Its relative viability is 0.572.

And the relative viability (ABC-1; first compound 0.5 µM)?
Its relative viability is 0.356.

What about the relative viability (COR-L23; first compound 0.005 µM) of the same compound?
Its relative viability is 0.839.

And the relative viability (COR-L23; first compound 0.01581 µM)?
Its relative viability is 0.814.

What about the relative viability (COR-L23; first compound 0.05 µM) of the same compound?
The relative viability was 0.877.

And the relative viability (COR-L23; first compound 0.1581 µM)?
The relative viability was 0.785.

And the relative viability (COR-L23; first compound 0.5 µM)?
The relative viability was 0.779.

What about the relative viability (EPLC-272H; first compound 0.005 µM) of the same compound?
Its relative viability is 0.296.

What about the relative viability (EPLC-272H; first compound 0.05 µM) of the same compound?
The relative viability was 0.323.

What about the relative viability (EPLC-272H; first compound 0.1581 µM) of the same compound?
The relative viability was 0.317.

And the relative viability (EPLC-272H; first compound 0.5 µM)?
The relative viability was 0.3.

And the relative viability (HARA; first compound 0.005 µM)?
The relative viability was 0.538.

And the relative viability (HARA; first compound 0.01581 µM)?
Its relative viability is 0.684.

And the relative viability (HARA; first compound 0.1581 µM)?
The relative viability was 0.66.

What about the relative viability (HARA; first compound 0.5 µM) of the same compound?
Its relative viability is 0.459.

And the relative viability (HCC-15; first compound 0.005 µM)?
The relative viability was 0.695.

And the relative viability (HCC-15; first compound 0.01581 µM)?
Its relative viability is 0.746.

What about the relative viability (HCC-15; first compound 0.05 µM) of the same compound?
The relative viability was 0.573.

What about the relative viability (HCC-15; first compound 0.1581 µM) of the same compound?
Its relative viability is 0.699.

What about the relative viability (HCC-15; first compound 0.5 µM) of the same compound?
Its relative viability is 0.624.

And the relative viability (HCC-78; first compound 0.005 µM)?
Its relative viability is 0.399.

What about the relative viability (HCC-78; first compound 0.01581 µM) of the same compound?
The relative viability was 0.343.

And the relative viability (HCC-78; first compound 0.1581 µM)?
Its relative viability is 0.349.

What about the relative viability (HCC-78; first compound 0.5 µM) of the same compound?
Its relative viability is 0.384.

What about the relative viability (LC-2-ad; first compound 0.005 µM) of the same compound?
The relative viability was 0.802.

And the relative viability (LC-2-ad; first compound 0.01581 µM)?
Its relative viability is 1.09.

And the relative viability (LC-2-ad; first compound 0.05 µM)?
The relative viability was 0.895.

And the relative viability (LC-2-ad; first compound 0.1581 µM)?
The relative viability was 0.762.

And the relative viability (LC-2-ad; first compound 0.5 µM)?
Its relative viability is 0.767.

What about the relative viability (LU99A; first compound 0.005 µM) of the same compound?
The relative viability was 0.305.

What about the relative viability (LU99A; first compound 0.01581 µM) of the same compound?
Its relative viability is 0.345.

What about the relative viability (LU99A; first compound 0.05 µM) of the same compound?
Its relative viability is 0.248.

What about the relative viability (LU99A; first compound 0.1581 µM) of the same compound?
The relative viability was 0.26.

And the relative viability (LU99A; first compound 0.5 µM)?
The relative viability was 0.312.

What about the relative viability (NCI-H1355; first compound 0.005 µM) of the same compound?
Its relative viability is 0.447.

What about the relative viability (NCI-H1355; first compound 0.01581 µM) of the same compound?
Its relative viability is 0.469.

What about the relative viability (NCI-H1355; first compound 0.05 µM) of the same compound?
Its relative viability is 0.425.

And the relative viability (NCI-H1355; first compound 0.1581 µM)?
Its relative viability is 0.397.

What about the relative viability (NCI-H1355; first compound 0.5 µM) of the same compound?
The relative viability was 0.431.

What about the relative viability (NCI-H1651; first compound 0.005 µM) of the same compound?
Its relative viability is 0.685.

What about the relative viability (NCI-H1651; first compound 0.01581 µM) of the same compound?
The relative viability was 0.795.

And the relative viability (NCI-H1651; first compound 0.05 µM)?
Its relative viability is 0.813.

And the relative viability (NCI-H1651; first compound 0.1581 µM)?
The relative viability was 0.782.

What about the relative viability (NCI-H1651; first compound 0.5 µM) of the same compound?
The relative viability was 0.721.

What about the relative viability (NCI-H1915; first compound 0.005 µM) of the same compound?
The relative viability was 0.595.

And the relative viability (NCI-H1915; first compound 0.01581 µM)?
Its relative viability is 0.636.

And the relative viability (NCI-H1915; first compound 0.05 µM)?
The relative viability was 0.627.

What about the relative viability (NCI-H1915; first compound 0.1581 µM) of the same compound?
Its relative viability is 0.521.

What about the relative viability (NCI-H1915; first compound 0.5 µM) of the same compound?
The relative viability was 0.629.

And the relative viability (NCI-H1993; first compound 0.005 µM)?
The relative viability was 0.566.

What about the relative viability (NCI-H1993; first compound 0.01581 µM) of the same compound?
The relative viability was 0.523.

What about the relative viability (NCI-H1993; first compound 0.05 µM) of the same compound?
Its relative viability is 0.551.

Source: the supplement of paper PMC10307832
